Legend:
[1] = target: EGFR Exon 20 INSNPH Ba/F3 (Homo sapiens, UniProt P00533, DUP771-773, cells depend on it); assay: EGFR Exon 20 INSNPH Ba/F3 CellTiter-Glo; format: cell-based; settings: CellTiter-Glo, 72 h, read-out: EGFR Exon 20 INSNPH Ba/F3 CTG IC50
How it was run: (§1)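 Ba/F3 cells were seeded, left 24 h at 37 °C/5% CO2, then exposed to compound dilutions in DMSO for 72 h. Viability was read as ATP luminescence (CellTiter-Glo) and IC50 fitted from dose–response curves; DMSO and 10 μM staurosporine defined the controls, and plates needed Z′ ≥0.5.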

[2] = target: Her2 Exon 20 INSYVMA Ba/F3 (Homo sapiens, UniProt P04626, DUP772-775, cells depend on it); assay: Her2 Exon 20 INSYVMA Ba/F3 CellTiter-Glo; format: cell-based; settings: CellTiter-Glo, 72 h, read-out: Her2 Exon 20 INSYVMA Ba/F3 CTG IC50
How it was run: as §1

EGFR T790ML858R = EGFR T790ML858R (Homo sapiens, UniProt P00533, L858R/T790M); assay: EGFR T790ML858R Lance assay; format: biochemical
Chain of EGFR T790ML858R (P00533 25-1210 T790M/L858R): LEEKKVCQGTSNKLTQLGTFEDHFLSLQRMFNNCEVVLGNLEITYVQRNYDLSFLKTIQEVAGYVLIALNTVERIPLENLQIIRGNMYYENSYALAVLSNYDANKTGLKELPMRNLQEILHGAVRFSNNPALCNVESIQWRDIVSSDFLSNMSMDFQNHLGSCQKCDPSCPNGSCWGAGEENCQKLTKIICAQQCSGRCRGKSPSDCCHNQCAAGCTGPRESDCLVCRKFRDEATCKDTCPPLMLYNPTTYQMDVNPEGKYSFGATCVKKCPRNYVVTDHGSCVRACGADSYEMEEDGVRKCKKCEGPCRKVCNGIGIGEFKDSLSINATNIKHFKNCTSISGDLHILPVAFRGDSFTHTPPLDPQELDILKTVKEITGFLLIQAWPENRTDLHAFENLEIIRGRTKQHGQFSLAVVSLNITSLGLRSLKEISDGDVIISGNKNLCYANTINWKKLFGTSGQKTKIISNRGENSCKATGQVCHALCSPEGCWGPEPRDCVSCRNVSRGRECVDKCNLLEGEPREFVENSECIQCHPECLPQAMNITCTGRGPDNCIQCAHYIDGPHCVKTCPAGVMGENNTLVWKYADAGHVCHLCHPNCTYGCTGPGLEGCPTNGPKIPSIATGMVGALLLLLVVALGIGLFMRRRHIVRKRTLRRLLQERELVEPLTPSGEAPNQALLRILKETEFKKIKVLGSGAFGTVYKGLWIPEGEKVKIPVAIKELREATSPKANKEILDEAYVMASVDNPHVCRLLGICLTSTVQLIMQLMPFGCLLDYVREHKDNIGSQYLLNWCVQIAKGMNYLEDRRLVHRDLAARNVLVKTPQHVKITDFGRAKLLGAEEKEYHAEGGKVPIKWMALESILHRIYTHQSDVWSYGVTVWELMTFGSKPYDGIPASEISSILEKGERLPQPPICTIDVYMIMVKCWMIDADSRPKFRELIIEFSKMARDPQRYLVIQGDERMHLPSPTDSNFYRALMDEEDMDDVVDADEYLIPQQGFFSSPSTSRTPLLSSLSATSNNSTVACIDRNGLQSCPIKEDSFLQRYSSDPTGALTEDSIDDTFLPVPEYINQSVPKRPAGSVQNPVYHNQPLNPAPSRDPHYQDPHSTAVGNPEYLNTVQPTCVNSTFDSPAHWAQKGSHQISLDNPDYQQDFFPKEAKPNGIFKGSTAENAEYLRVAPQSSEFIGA
Description: (§2) Inhibition is indicated as […] [nM] (“−”=not measured). Compounds having an activity designated as “A” provided an IC50≤100 nM; compounds having an activity designated as “B” provided an 100 nM<IC50≤500 nM; compounds having an activity designated as “C” provided an 500 nM<IC50≤1000 nM; compounds having an activity designated as “D” provided an 1000 nM<IC50≤100000 nM; and compounds having an activity designated as “E” provided an IC50>10000 nM.

EGFR wt = EGFR wt (Homo sapiens, UniProt P00533); assay: EGFR wt Lance assay; format: biochemical
Chain of EGFR wt (P00533 25-1210): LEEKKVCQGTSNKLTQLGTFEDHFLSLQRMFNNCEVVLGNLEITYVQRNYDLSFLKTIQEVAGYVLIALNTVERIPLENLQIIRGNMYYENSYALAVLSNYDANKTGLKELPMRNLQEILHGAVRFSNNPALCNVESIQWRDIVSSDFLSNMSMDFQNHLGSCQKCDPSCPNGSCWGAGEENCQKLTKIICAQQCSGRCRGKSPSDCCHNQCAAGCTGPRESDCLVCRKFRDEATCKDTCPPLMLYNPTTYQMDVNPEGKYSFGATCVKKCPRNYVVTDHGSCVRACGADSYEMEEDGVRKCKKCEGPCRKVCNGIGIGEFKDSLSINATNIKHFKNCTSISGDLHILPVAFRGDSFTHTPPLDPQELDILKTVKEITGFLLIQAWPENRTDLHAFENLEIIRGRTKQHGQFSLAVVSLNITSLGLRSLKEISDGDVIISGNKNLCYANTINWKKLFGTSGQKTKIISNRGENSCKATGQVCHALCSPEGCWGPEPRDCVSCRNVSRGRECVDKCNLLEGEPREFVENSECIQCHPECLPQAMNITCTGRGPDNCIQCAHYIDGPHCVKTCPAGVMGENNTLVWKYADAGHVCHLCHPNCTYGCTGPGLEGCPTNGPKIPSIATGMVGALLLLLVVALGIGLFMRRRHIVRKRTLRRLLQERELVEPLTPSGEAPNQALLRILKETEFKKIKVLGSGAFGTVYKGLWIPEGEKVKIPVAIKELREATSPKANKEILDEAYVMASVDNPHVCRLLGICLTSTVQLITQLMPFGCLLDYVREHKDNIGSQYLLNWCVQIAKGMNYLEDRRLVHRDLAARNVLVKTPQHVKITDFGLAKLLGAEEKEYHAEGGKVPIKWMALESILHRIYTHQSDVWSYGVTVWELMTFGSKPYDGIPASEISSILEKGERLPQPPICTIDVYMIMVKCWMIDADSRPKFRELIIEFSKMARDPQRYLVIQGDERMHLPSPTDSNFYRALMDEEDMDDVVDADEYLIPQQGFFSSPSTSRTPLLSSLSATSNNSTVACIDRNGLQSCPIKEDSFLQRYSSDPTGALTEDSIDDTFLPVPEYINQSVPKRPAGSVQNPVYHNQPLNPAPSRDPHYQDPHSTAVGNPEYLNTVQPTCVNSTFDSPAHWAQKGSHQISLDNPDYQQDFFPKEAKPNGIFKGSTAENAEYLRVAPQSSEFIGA
Description: as §2

H1975 = H1975 CellTiter-Glo; format: cell-based; settings: Homo sapiens, NCI-H1975; 72 h compound incubation; read-out: H1975 CTG IC50
How it was run: (§3)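 Luminescence from cellular ATP serves as the viability signal after cells are treated with compound dilutions for 72 h at 37° C. IC50 is derived by curve fitting, with DMSO-treated and 10 μM Staurosporine-treated wells defining the assay window.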

HER2 INS YVMA = target: T1, HER2 INS YVMA (Homo sapiens, UniProt P04626, INS775YVMA); assay: Lance Kinase Activity Assay, HER2 INS YVMA (Her2 Exon 20 INSYVMA Lance); format: biochemical; settings: biochemical Lance assay
T1 construct: purchased DPF
T1 sequence (P04626 with tags, fused parts or gaps INS775YVMA): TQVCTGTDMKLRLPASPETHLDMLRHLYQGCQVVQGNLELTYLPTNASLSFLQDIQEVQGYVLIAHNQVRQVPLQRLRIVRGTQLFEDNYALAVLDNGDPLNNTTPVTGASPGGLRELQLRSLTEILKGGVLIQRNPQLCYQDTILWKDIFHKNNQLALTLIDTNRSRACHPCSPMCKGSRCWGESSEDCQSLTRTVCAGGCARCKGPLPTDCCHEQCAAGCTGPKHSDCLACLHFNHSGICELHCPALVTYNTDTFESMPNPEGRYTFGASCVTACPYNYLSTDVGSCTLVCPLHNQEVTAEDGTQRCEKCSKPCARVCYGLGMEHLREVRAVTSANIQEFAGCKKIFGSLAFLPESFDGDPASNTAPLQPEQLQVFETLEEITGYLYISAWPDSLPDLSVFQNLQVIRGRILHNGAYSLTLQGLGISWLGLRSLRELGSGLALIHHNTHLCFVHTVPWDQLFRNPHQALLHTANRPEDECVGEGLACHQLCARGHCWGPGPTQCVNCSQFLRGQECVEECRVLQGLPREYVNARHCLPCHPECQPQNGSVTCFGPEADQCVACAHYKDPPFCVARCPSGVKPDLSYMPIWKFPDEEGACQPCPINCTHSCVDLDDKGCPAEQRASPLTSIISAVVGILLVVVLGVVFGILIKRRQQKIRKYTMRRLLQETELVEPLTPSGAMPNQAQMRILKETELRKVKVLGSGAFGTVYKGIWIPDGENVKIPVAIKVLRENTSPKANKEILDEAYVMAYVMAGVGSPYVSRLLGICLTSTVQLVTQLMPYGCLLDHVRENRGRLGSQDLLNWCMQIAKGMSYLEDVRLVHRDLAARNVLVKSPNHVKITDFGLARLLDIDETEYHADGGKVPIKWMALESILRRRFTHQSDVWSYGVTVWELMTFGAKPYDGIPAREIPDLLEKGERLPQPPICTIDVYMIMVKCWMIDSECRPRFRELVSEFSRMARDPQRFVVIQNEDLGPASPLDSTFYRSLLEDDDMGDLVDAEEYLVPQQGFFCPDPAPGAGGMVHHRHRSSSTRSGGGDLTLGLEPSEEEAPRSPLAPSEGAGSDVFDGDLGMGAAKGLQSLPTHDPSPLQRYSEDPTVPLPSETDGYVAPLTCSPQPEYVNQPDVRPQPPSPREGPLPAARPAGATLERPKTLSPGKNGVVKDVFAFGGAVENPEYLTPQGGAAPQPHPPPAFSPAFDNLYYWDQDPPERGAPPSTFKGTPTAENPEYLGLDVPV
How it was run: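 Kinase phosphorylates a ULight-labelled peptide substrate; Eu anti-phospho antibody gives TR-FRET (ex 340 nm, em 665/615 nm). Compounds in 1:3 serial dilution over 8 steps, reaction started with ATP, 1 h at room temperature, stopped with EDTA-containing detection mix for 1 h. IC50 from sigmoidal dose-response curves.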

[3] = Metabolic stability in mouse liver microsomes without cofactor NADPH; format: in vitro ADME; settings: for Stability in presence of mouse liver microsomes without cofactor NADPH [% remaining after 50 min]: 3 μM test compound, 37° C., LC-MS/MS
From the text: There are two major groups of enzyme reactions catalyzed by drug metabolizing enzymes, the so called Phase I and Phase II reactions. The basic processes in phase I reactions are oxidation, reduction and/or hydrolysis mostly catalyzed by the cytochrome P450 (CYP) family of enzymes.
The following procedures describe the determination of the in vitro Phase I metabolic stability of test compounds using liver microsomes by measuring compound depletion over time. Test compound at the concentration of 3 μM was incubated with the liver microsomes from the mouse species and the experiment was performed without NADPH. The depletion of the test compounds was measured over time up to 50 minutes at 37° C. by LC-MS/MS. Different compounds were tested under these conditions for microsomal stability (see Table 5).

A431 = A431 CellTiter-Glo; format: cell-based; settings: Homo sapiens, A-431; 72 h compound incubation; read-out: A431 CTG IC50
How it was run: as §3

Chain of EGFR Exon 20 INSNPH Ba/F3 (P00533 with tags, fused parts or gaps DUP771-773): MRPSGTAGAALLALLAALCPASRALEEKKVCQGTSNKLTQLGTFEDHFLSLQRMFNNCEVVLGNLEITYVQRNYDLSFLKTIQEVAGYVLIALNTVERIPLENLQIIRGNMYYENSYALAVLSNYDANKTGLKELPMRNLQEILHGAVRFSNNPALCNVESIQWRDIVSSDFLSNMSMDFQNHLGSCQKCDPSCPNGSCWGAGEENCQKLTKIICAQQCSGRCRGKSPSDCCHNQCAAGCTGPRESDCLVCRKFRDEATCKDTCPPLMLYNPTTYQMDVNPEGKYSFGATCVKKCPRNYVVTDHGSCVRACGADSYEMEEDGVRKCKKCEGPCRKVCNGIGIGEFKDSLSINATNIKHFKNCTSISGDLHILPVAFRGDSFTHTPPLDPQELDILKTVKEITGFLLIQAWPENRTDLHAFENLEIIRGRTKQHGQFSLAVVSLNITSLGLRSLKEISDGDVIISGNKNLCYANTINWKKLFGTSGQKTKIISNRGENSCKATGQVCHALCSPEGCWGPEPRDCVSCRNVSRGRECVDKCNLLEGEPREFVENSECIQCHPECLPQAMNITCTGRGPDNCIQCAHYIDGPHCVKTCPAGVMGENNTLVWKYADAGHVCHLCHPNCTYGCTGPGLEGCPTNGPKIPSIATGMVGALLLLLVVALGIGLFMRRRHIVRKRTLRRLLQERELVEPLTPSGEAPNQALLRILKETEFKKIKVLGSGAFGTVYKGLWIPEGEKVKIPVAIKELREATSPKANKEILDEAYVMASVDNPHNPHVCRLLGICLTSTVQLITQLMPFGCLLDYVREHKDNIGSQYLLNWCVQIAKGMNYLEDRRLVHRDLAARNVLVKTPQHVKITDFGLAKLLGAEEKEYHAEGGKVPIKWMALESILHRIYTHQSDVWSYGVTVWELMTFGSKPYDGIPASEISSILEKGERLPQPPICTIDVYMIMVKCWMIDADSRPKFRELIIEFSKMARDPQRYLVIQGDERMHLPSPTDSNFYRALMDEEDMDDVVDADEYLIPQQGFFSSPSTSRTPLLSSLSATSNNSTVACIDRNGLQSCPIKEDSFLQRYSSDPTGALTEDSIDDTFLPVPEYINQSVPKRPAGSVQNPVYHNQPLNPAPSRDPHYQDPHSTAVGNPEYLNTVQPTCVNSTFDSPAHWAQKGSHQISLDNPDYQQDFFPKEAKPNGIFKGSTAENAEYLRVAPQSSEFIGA

SMILES | GI50 [1] [nM] | GI50 [2] [nM] | IC50 (EGFR T790ML858R) [nM] | IC50 (EGFR wt) [nM] | IC50 (H1975) [nM] | IC50 (HER2 INS YVMA) [nM] | Stability in presence of mouse liver microsomes without cofactor NADPH [% remaining after 50 min] [3] [% remaining after 50 min] | IC50 (A431) [nM] | major metabolite observed ([3]; mouse liver microsomes with and without the cofactor NADPH)
C=CC(=O)Nc1cc(-c2c(-c3cccc(N4CCOCC4)c3)[nH]c3nccc(Cl)c23)ccc1C [Example 6, N-(5-(4-chloro-2-(3-morpholinophenyl)-1H-pyrrolo[2,3-b]pyridin-3-yl)-2-methylphenyl)acrylamide] | 500 to 1000 | 500 to 1000 | ≤ 100 | ≤ 100 | 100 to 500 | 500 to 1000 | >99 | – | –
C=CC(=O)Nc1cc(-c2c(-c3cccc(CN4CCOCC4)c3)[nH]c3nccc(Cl)c23)ccc1C [Example 7, N-(5-(4-chloro-2-(3-(morpholinomethyl)phenyl)-1H-pyrrolo[2,3-b]pyridin-3-yl)-2-methylphenyl)acrylamide] | 1000 to 10000 | 500 to 1000 | ≤ 100 | 100 to 500 | 100 to 500 | 500 to 1000 | >99 | – | –
C=CC(=O)Nc1cc(-c2c(-c3ccc(NS(C)(=O)=O)cc3)[nH]c3nccc(Cl)c23)ccc1C [Example 12, N-(5-(4-chloro-2-(4-(methylsulfonamido)phenyl)-1H-pyrrolo[2,3-b]pyridin-3-yl)-2-methylphenyl)acrylamide] | 100 to 500 | 100 to 500 | ≤ 100 | ≤ 100 | ≤ 100 | 100 to 500 | >99 | – | –
C=CC(=O)Nc1cc(-c2c(-c3ccc(NC(C)=O)cc3)[nH]c3nccc(Cl)c23)ccc1C [Example 14, N-(5-(2-(4-acetamidophenyl)-4-chloro-1H-pyrrolo[2,3-b]pyridin-3-yl)-2-methylphenyl)acrylamide] | 500 to 1000 | 500 to 1000 | ≤ 100 | ≤ 100 | 100 to 500 | 100 to 500 | 68 | – | –
C=CC(=O)Nc1cc(-c2c(-c3cccc(OCCCN(C)C)c3)[nH]c3nccc(Cl)c23)ccc1C [Example 20, N-(5-(4-chloro-2-(3-(3-(dimethylamino)propoxy)phenyl)-1H-pyrrolo[2,3-b]pyridin-3-yl)-2-methylphenyl)acrylamide] | 500 to 1000 | 500 to 1000 | ≤ 100 | ≤ 100 | ≤ 100 | ≤ 100 | >99 | – | –
C=CC(=O)Nc1cc(-c2c(-c3cncnc3)[nH]c3nccc(Cl)c23)ccc1C [Example 24, N-(5-(4-chloro-2-(pyrimidin-5-yl)-1H-pyrrolo[2,3-b]pyridin-3-yl)-2-methylphenyl)acrylamide] | 500 to 1000 | 500 to 1000 | ≤ 100 | 100 to 500 | 100 to 500 | 100 to 500 | >99 | – | –
C=CC(=O)Nc1cc(-c2c(-c3cccc(C(=O)N4CCOCC4)c3)[nH]c3nccc(Cl)c23)ccc1C [Example 27, N-(5-(4-chloro-2-(3-(morpholine-4-carbonyl)phenyl)-1H-pyrrolo[2,3-b]pyridin-3-yl)-2-methylphenyl)acrylamide] | 1000 to 10000 | 1000 to 10000 | ≤ 100 | 100 to 500 | 100 to 500 | 500 to 1000 | >99 | – | –
C=CC(=O)Nc1cc(-c2c(-c3ccc(C4CCNCC4)cc3)[nH]c3nccc(Cl)c23)ccc1C [Example 29, N-(5-(4-chloro-2-(4-(piperidin-4-yl)phenyl)-1H-pyrrolo[2,3-b]pyridin-3-yl)-2-methylphenyl)acrylamide] | 500 to 1000 | 500 to 1000 | ≤ 100 | ≤ 100 | ≤ 100 | ≤ 100 | >99 | – | –
C=CC(=O)Nc1cccc(-c2c(-c3ccc(C4CCN(C)CC4)cc3)[nH]c3ncccc23)c1 [Reference 1, reference compound] | – | – | – | – | – | – | 33 | – | hydrolysis of the acrylamide moiety

Next, values leading:

GI50 [1] [nM] | GI50 [2] [nM] | IC50 (EGFR T790ML858R) [nM] | IC50 (EGFR wt) [nM] | IC50 (H1975) [nM] | IC50 (HER2 INS YVMA) [nM] | Stability in presence of mouse liver microsomes without cofactor NADPH [% remaining after 50 min] [3] [% remaining after 50 min] | IC50 (A431) [nM] | major metabolite observed ([3]; mouse liver microsomes with and without the cofactor NADPH) | SMILES
100 to 500 | 100 to 500 | ≤ 100 | ≤ 100 | ≤ 100 | ≤ 100 | >99 | – | – | C=CC(=O)Nc1cc(-c2c(-c3ccc(C(=O)N4CCN(C)CC4)cc3)[nH]c3nccc(Cl)c23)ccc1C [Example 9, N-(5-(4-chloro-2-(4-(4-methylpiperazine-1-carbonyl)phenyl)-1H-pyrrolo[2,3-b]pyridin-3-yl)-2-methylphenyl)acrylamide]
500 to 1000 | 500 to 1000 | ≤ 100 | ≤ 100 | ≤ 100 | 100 to 500 | 93 | – | – | C=CC(=O)Nc1cc(-c2c(-c3ccc(N4CCN(C)CC4)cc3OC)[nH]c3nccc(Cl)c23)ccc1C [Example 21, N-(5-(4-chloro-2-(2-methoxy-4-(4-methylpiperazin-1-yl)phenyl)-1H-pyrrolo[2,3-b]pyridin-3-yl)-2-methylphenyl)acrylamide]
1000 to 10000 | 500 to 1000 | ≤ 100 | 100 to 500 | 100 to 500 | 100 to 500 | >99 | – | – | C=CC(=O)Nc1cc(-c2c(-c3cccc(CN4CCN(C(C)=O)CC4)c3)[nH]c3nccc(Cl)c23)ccc1C [Example 22, N-(5-(2-(3-((4-acetylpiperazin-1-yl)methyl)phenyl)-4-chloro-1H-pyrrolo[2,3-b]pyridin-3-yl)-2-methylphenyl)acrylamide]
– | – | – | – | – | – | 100 | – | – | C=CC(=O)Nc1cc(-c2c(-c3ccc(N4CCN(C)CC4)cc3)[nH]c3ncc(C(=O)OC(C)C)cc23)ccc1C [Example 117, isopropyl 3-(3-acrylamido-4-methylphenyl)-2-(4-(4-methylpiperazin-1-yl)phenyl)-1H-pyrrolo[2,3-b]pyridine-5-carboxylate 2,2,2-trifluoroacetate]
≤ 100 | 100 to 500 | ≤ 100 | ≤ 100 | 100 to 500 | ≤ 100 | – | 1000 to 100000 | – | C=CC(=O)Nc1cc(-c2c(-c3ccc(OCCN(C)C)cc3)[nH]c3ncc(C(=O)OC(C)C)c(C)c23)ccc1C [Example 205, isopropyl 3-(3-acrylamido-4-methylphenyl)-2-(4-(2-(dimethylamino)ethoxy)phenyl)-4-methyl-1H-pyrrolo[2,3-b]pyridine-5-carboxylate]
– | – | – | – | – | – | 48 | – | – | C=CC(=O)Nc1cc(OC)cc(-c2c(-c3ccc(N4CCN(C)CC4)cc3)[nH]c3ncccc23)c1 [Reference 2, reference compound]
